Data: publication PMC6161897, “The novel NADPH oxidase 4 selective inhibitor GLX7013114 counteracts human islet cell death in vitro” (PLoS ONE, 2018)
pIC50: −log10 of the molar value.

Tests used:
all Nox enzymes = details: cited from earlier work
Nox2 = details: cited from earlier work
caspase 3 = assay: Cleaved caspase 3 immunofluorescence in human islets; format: cell-based; details: palmitate + high glucose 24h, same inhibitor concentrations as Fig 3
XO = details: cited from earlier work
human islet = details: cited from earlier work
[1] = cited from earlier work
EndoC-βH1 cells = assay: EndoC-βH1 cell viability (PI, flow cytometry); format: cell-based, human; details: inhibitor 0.2, 0.5 or 1.0 μM; for cell death rates in EndoC-βH1 cells exposed to cytokines: 2-day incubation; for cell death rates in EndoC-βH1 cells exposed to high glucose + palmitate: 24h incubation
Experimental: […] Cells were then vital stained with 10 μg/ml propidium iodide (PI) for 10 min at 37°C. Free-floating cells and cells attached to the culture dish were washed separately with PBS, pooled and examined by flow cytometry using a FACSCalibur (BD Biosciences, Franklin Lakes, NJ, USA). In each experimental group 10000 cells were examined and gated by PI intensity and FSC signal. The percentage of dead cells was analyzed using […] software (BD Biosciences).

human islet cells [2] = assay: Human islet cell viability (PI/bisbenzimide ratio); format: cell-based; details: for human islet cell death, cytokines: IL-1β + IFN-γ 20 ng/ml each; for human islet cell death, cytokines / human islet cell death, high glucose + palmitate: 48h, ML171 2 μM, Phox-I2 2 μM, GLX7013114 1 μM; for human islet cell death, high glucose + palmitate: palmitate 1.5 mM + 20 mM glucose
Experimental: […] Cell viability was measured by staining cells with propidium iodide (20 μg/ml) and bisbenzimide (5 μg/ml) for 20 min at 37°C. The medium was replaced with PBS and the red and blue fluorescence was detected using a Nikon Eclipse fluorescence TE2000-U microscope (Nikon Instruments, Amsterdam, the Netherlands). The ratio of red to blue was taken as a relative measure of cell death (necrosis and late apoptosis) and was quantified using the Image J software (National Institutes of Health).

human islet cells [3] = assay: ROS production in human islets (DCF fluorescence); format: cell-based; details: palmitate 1.5 mM + 20 mM glucose 24h, inhibitor during last 3h: DPI 0.2 μM, Dapsone 10 μM, GLX351322 10 μM, GLX481372 6 μM
DUOX1 = test system: DUOX1; design: method as in PMID 24053146; details: cited from earlier work
Nox4 = target: T1, Nox4 (Homo sapiens, UniProt Q9NPH5); details: cited from earlier work
T1 construct: host or cells: HEK 293 (CJ, constitutive) and T-REx-293 (tetracycline-inducible)
T1 sequence (Q9NPH5 1-578): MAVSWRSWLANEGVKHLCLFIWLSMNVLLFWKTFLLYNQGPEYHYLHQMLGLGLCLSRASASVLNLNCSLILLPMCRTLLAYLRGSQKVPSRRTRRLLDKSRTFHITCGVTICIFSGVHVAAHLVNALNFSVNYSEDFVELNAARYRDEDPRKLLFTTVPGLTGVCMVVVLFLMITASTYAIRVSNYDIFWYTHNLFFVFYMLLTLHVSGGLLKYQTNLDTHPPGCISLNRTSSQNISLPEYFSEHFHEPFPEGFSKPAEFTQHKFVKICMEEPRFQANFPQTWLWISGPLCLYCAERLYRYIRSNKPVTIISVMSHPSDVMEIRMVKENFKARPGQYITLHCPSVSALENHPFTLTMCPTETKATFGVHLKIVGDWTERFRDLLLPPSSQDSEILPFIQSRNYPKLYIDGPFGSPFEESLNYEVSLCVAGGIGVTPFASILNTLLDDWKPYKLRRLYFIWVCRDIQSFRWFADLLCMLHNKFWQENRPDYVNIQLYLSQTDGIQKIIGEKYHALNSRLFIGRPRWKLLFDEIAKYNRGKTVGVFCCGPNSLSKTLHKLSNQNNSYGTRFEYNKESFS
T1 sequence (P13498 2-195 partner limits assumed): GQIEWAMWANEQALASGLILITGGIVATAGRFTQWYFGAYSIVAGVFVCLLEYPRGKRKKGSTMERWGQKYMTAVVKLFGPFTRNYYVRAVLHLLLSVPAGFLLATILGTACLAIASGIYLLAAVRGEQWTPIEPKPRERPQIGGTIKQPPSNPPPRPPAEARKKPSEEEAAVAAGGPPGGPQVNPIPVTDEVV

Structure (SMILES) | pIC50 (Nox2) | activation of caspase 3 in human islets (caspase 3) | XO inhibition (XO) | cell death rates in EndoC-βH1 cells exposed to cytokines (EndoC-βH1 cells) | cell death rates in EndoC-βH1 cells exposed to high glucose + palmitate (EndoC-βH1 cells) | human islet cell death, cytokines (human islet cells [2]) | human islet cell death, high glucose + palmitate (human islet cells [2]) | further results
c1ccc2c(c1)[I+]c1ccccc1-2 [DPI, diphenyleneiodoniumchloride] | […] | reduced activation of caspase 3 | Yes | – | – | – | – | IC50 values for all Nox enzymes (all Nox enzymes): nM range
CCOC(=O)c1c(NC(=O)CN2CCN(C(=O)c3ccco3)CC2)sc2c1CCC2 [GLX351322] | 4.40 | reduced activation of caspase 3 | Inactive | – | – | – | – | high glucose-induced inhibition of human islet insulin release and survival (human islet): protected against high glucose-induced inhibition of human islet insulin release and survival; high-fat diet-induced glucose intolerance [1]: amelioration of high-fat diet-induced glucose intolerance
CC(=O)c1ccc2c(c1)Nc1ccccc1S2 [ML171] | […] | – | – | failed to affect cell death rates | failed to affect cell death rates | failed to reduce human islet cell death | failed to reduce human islet cell death | pIC50 (XO; read-out: XO inhibition): 5.26
O=[N+]([O-])c1cccc(C2Nc3ccc([N+](=O)[O-])cc3C3C=CCC32)c1 (stereo not shown) [Phox-I2] | 6.00 | – | – | failed to affect cell death rates | failed to affect cell death rates | failed to protect | partially protected | –
Nc1ccc(S(=O)(=O)c2ccc(N)cc2)cc1 [dapsone] | – | reduced activation of caspase 3 | – | – | – | – | – | human islet cell viability (PI and Bisbenzimide ratio) (human islet cells [2]; palmitate + high glucose 24h, inhibitor throughout: DPI 0.2 μM, Dapsone 10 μM, GLX351322 10 μM, GLX481372 6 μM): improved viability; human islet ROS production (DCF/DAPI ratio) (human islet cells [3]): reduced human islet ROS production; inhibition of expression/activity of DUOX1 (DUOX1): μM concentrations; inhibition of expression/activity of Nox4 (Nox4): μM concentrations
